In one test the test system is E. coli BL 21 AI. Nature of the test: Growth inhibition assay (MIC). Type of test: cell-based, Escherichia coli. As to conditions: 1% TSB, 37° C., 20 hrs. The procedure:
(§1) The minimal inhibition concentrations (MIC) of the apidaecin-derived peptides and peptide-derivatives were determined by a growth inhibition assay using a serial peptide dilution in sterilized round-bottom 96-well plates (polystyrene, U-bottom, Greiner Bio-One GmbH) with a final volume of 100 μL per well. The bacteria, e.g., E. coli BL21 A1, were grown in nutrient broth (NB, Carl Roth GmbH+Co. KG, Karlsruhe, Germany) at 37° C. over night. To each well of the 96-well plate, 50 μL of the overnight culture adjusted to 5×10^6 CFU/mL in 1% TSB were added. Lyophilized peptides and peptidomimetics were dissolved in 1% TSB (tryptic soy broth) or water to give a final concentration of 250 μg/mL. Fifty μL of the peptide or peptidomimetics solution were added to the first well of a row on the plate and mixed. Fifty μL of the first well containing the peptide solution were transferred to the second well, mixed and again 50 μL transferred to the next well and so on. Thereby, a two-fold dilution series was obtained starting at 250 μg/mL in the first well down to 120 ng/mL in the 12th well of a row giving a final peptide or peptidomimetics concentration from 125 μg/mL (well 1) to 60 ng/mL (well 12). Plates were incubated at 37° C. for 20 hrs. The absorbance was measured at 595 nm using a TECAN micro plate spectrophotometer (Tecan, Germany). All peptides and peptidomimetics were measured in triplicates. Sterilized water was used as a negative control.
(§2) The bacteria strains were tested: • Eschericha coli 1103, 10233, BL 21 AI, DC 2, • Klebsiella pneumoniae 681, • Micrococcus luteus ATCC 10240, • Mycobacterium vaccae • Bactillus subtillis 347.

The next test has as its system M. luteus ATCC 10240. Type of test: cell-based, Micrococcus luteus. The settings on record: ATCC 10240, 20 h. The procedure:
as §1, §2

Values after ≈ are worked out from the molar mass of the structure shown. Where a SMILES comes first, the peptide text is derived from it. [ ]: non-standard residue; d: D form. The star is where a group is joined. Orn(α-tetramethylguanidino) = CN(C)C(=N[C@@H](CCCN)C(=O)*)N(C)C; Hyp = O=C(O)[C@@H]1C[C@@H](O)CN1; Cha = N[C@@H](CC1CCCCC1)C(=O)O; Cit = NC(=O)NCCC[C@H](N)C(=O)O; Tle = CC(C)(C)[C@H](N)C(=O)O; Ac6c = NC1(C(=O)O)CCCCC1; Orn = NCCC[C@H](N)C(=O)O; βAla = NCCC(=O)O Some results are limits rather than exact numbers.

Take `CC[C@H](C)[C@H](NC(=O)[C@H](CCCNC(=N)N)NC(=O)[C@@H]1CCCN1C(=O)[C@H](Cc1c[nH]cn1)NC(=O)[C@@H]1CCCN1C(=O)[C@@H]1CCCN1C(=O)[C@H](CCCNC(=N)N)NC(=O)[C@@H]1CCCN1C(=O)[C@H](CCC(N)=O)NC(=O)[C@@H]1CCCN1C(=O)[C@@H](NC(=O)[C@H](Cc1ccc(O)cc1)NC(=O)[C@@H](NC(=O)[C@@H]1CCCN1C(=O)[C@H](CCCNC(=N)N)NC(=O)[C@H](CC(N)=O)NC(=O)[C@H](CC(N)=O)NC(=O)[C@@H](N)CCCN)C(C)C)[C@@H](C)CC)C(N)=O` [compound 62] (H-[Orn]NNRPVYIPQPRPPHPRI-NH2): the “MIC E. coli BL 21 AI” value in the test with E. coli BL 21 AI worked out at 1.95 µg/mL (≈ 0.901 µM). In addition, the “MIC M. luteus ATCC 10240” value against M. luteus ATCC 10240 was 7.81 µg/mL (≈ 3.61 µM).

Regarding `CC[C@H](C)[C@H](NC(=O)[C@H](CCCNC(=N)N)NC(=O)[C@@H]1CCCN1C(=O)[C@H](Cc1c[nH]cn1)NC(=O)[C@@H]1CCCN1C(=O)[C@@H]1CCCN1C(=O)[C@H](CCCNC(=N)N)NC(=O)[C@@H]1CCCN1C(=O)[C@H](CCC(N)=O)NC(=O)[C@@H]1CCCN1C(=O)[C@@H](NC(=O)[C@H](Cc1ccc(O)cc1)NC(=O)[C@@H](NC(=O)[C@@H]1CCCN1C(=O)[C@H](CCCNC(=N)N)NC(=O)[C@H](CC(N)=O)NC(=O)[C@H](CC(N)=O)NC(=O)[C@H](CCCN)NC(C)=O)C(C)C)[C@@H](C)CC)C(N)=O` [compound 63] (Ac-[Orn]NNRPVYIPQPRPPHPRI-NH2), the “MIC E. coli BL 21 AI” value in the test with E. coli BL 21 AI came to 3.91 µg/mL (≈ 1.77 µM). Besides, the “MIC M. luteus ATCC 10240” value in the test with M. luteus ATCC 10240 was 3.91 µg/mL (≈ 1.77 µM).

As for `CC[C@H](C)[C@H](NC(=O)[C@H](Cc1ccc(O)cc1)NC(=O)[C@@H](NC(=O)[C@@H]1CCCN1C(=O)[C@H](CCCNC(=N)N)NC(=O)[C@H](CC(N)=O)NC(=O)[C@H](CC(N)=O)NC(=O)[C@H](CCCN)NC(C)=O)C(C)C)C(=O)N1CCC[C@H]1C(=O)N[C@@H](CCC(N)=O)C(=O)N1CCC[C@H]1C(=O)N[C@@H](CCCNC(=N)N)C(=O)N1CCC[C@H]1C(=O)N1CCC[C@H]1C(=O)N[C@@H](Cc1c[nH]cn1)C(=O)N1CCC[C@H]1C(=O)N[C@@H](CCCNC(=N)N)C(=O)N[C@H](CC(C)C)C(N)=O` [compound 72] (Ac-[Orn]NNRPVYIPQPRPPHPR[dL]-NH2), the “MIC E. coli BL 21 AI” value against E. coli BL 21 AI is above 125 µg/mL. Also, in the test with M. luteus ATCC 10240, the “MIC M. luteus ATCC 10240” value stood at 7.81 µg/mL (≈ 3.54 µM).

Consider `CC[C@H](C)[C@H](NC(=O)[C@H](Cc1ccc(O)cc1)NC(=O)[C@@H](NC(=O)[C@@H]1CCCN1C(=O)[C@H](CCCNC(=N)N)NC(=O)[C@H](CC(N)=O)NC(=O)[C@H](CC(N)=O)NC(=O)[C@H](CCCN)NC(C)=O)C(C)C)C(=O)N1CCC[C@H]1C(=O)N[C@@H](CCC(N)=O)C(=O)N1CCC[C@H]1C(=O)N[C@@H](CCCNC(=N)N)C(=O)N1CCC[C@H]1C(=O)N1CCC[C@H]1C(=O)N[C@@H](Cc1c[nH]cn1)C(=O)N1CCC[C@H]1C(=O)N[C@@H](CCCNC(=N)N)C(=O)N[C@H](C(N)=O)C(C)(C)C` [compound 73] (Ac-[Orn]NNRPVYIPQPRPPHPR[Tle]-NH2), for which, in the test with E. coli BL 21 AI, the “MIC E. coli BL 21 AI” value amounted to 62.5 µg/mL (≈ 28.3 µM). In addition, in the test on M. luteus ATCC 10240, the “MIC M. luteus ATCC 10240” value was 7.81 µg/mL (≈ 3.54 µM).

As for `CC[C@H](C)[C@H](NC(=O)[C@H](Cc1ccc(O)cc1)NC(=O)[C@@H](NC(=O)[C@@H]1CCCN1C(=O)[C@H](CCCNC(=N)N)NC(=O)[C@H](CC(N)=O)NC(=O)[C@H](CC(N)=O)NC(=O)[C@H](CCCN)NC(C)=O)C(C)C)C(=O)N1CCC[C@H]1C(=O)N[C@@H](CCC(N)=O)C(=O)N1CCC[C@H]1C(=O)N[C@@H](CCCNC(=N)N)C(=O)N1CCC[C@H]1C(=O)N1CCC[C@H]1C(=O)N[C@@H](Cc1c[nH]cn1)C(=O)N1CCC[C@H]1C(=O)N[C@@H](CCCNC(=N)N)C(=O)NCCC(N)=O` [compound 74] (Ac-[Orn]NNRPVYIPQPRPPHPR[βAla]-NH2), the “MIC E. coli BL 21 AI” value against E. coli BL 21 AI is above 125 µg/mL. Further, in the test with M. luteus ATCC 10240, the “MIC M. luteus ATCC 10240” value was found to be 7.81 µg/mL (≈ 3.61 µM).

For `CC[C@H](C)[C@H](NC(=O)[C@H](Cc1ccc(O)cc1)NC(=O)[C@@H](NC(=O)[C@@H]1CCCN1C(=O)[C@H](CCCNC(=N)N)NC(=O)[C@H](CC(N)=O)NC(=O)[C@H](CC(N)=O)NC(=O)[C@H](CCCN)NC(C)=O)C(C)C)C(=O)N1CCC[C@H]1C(=O)N[C@@H](CCC(N)=O)C(=O)N1CCC[C@H]1C(=O)N[C@@H](CCCNC(=N)N)C(=O)N1CCC[C@H]1C(=O)N1CCC[C@H]1C(=O)N[C@@H](Cc1c[nH]cn1)C(=O)N1CCC[C@H]1C(=O)N[C@@H](CCCNC(=N)N)C(=O)NC1(C(N)=O)CCCCC1` [compound 75] (Ac-[Orn]NNRPVYIPQPRPPHPR[Ac6c]-NH2), in the test on E. coli BL 21 AI, the “MIC E. coli BL 21 AI” value was above 125 µg/mL. Moreover, in the test on M. luteus ATCC 10240, the “MIC M. luteus ATCC 10240” value turned out to be 7.81 µg/mL (≈ 3.52 µM).

Consider `CC[C@H](C)[C@H](NC(=O)[C@H](Cc1ccc(O)cc1)NC(=O)[C@@H](NC(=O)[C@@H]1CCCN1C(=O)[C@H](CCCNC(=N)N)NC(=O)[C@H](CC(N)=O)NC(=O)[C@H](CC(N)=O)NC(=O)CN)C(C)C)C(=O)N1CCC[C@H]1C(=O)N[C@@H](CCC(N)=O)C(=O)N1CCC[C@H]1C(=O)N[C@@H](CCCNC(=N)N)C(=O)N1CCC[C@H]1C(=O)N1CCC[C@H]1C(=O)N[C@@H](Cc1c[nH]cn1)C(=O)N1CCC[C@H]1C(=O)N[C@@H](CCCNC(=N)N)C(=O)N[C@@H](CC1CCCCC1)C(N)=O` [compound 76] (H-GNNRPVYIPQPRPPHPR[Cha]-NH2), for which the “MIC E. coli BL 21 AI” value in the test on E. coli BL 21 AI is 62.5 µg/mL (≈ 29.1 µM). In addition, in the test with M. luteus ATCC 10240, the “MIC M. luteus ATCC 10240” value stood at 15.63 µg/mL (≈ 7.28 µM).

Consider `CC[C@H](C)[C@H](NC(=O)[C@H](Cc1ccc(O)cc1)NC(=O)[C@@H](NC(=O)[C@@H]1CCCN1C(=O)[C@H](CCCNC(=N)N)NC(=O)[C@H](CC(N)=O)NC(=O)[C@H](CC(N)=O)NC(=O)CN)C(C)C)C(=O)N1CCC[C@H]1C(=O)N[C@@H](CCC(N)=O)C(=O)N1CCC[C@H]1C(=O)N[C@@H](CCCNC(=N)N)C(=O)N1CCC[C@H]1C(=O)N1CCC[C@H]1C(=O)N[C@@H](Cc1c[nH]cn1)C(=O)N1CCC[C@H]1C(=O)N[C@@H](CCCNC(=N)N)C(=O)N[C@H](C(N)=O)C(C)(C)C` [compound 78] (H-GNNRPVYIPQPRPPHPR[Tle]-NH2), for which, in the test with M. luteus ATCC 10240, the “MIC M. luteus ATCC 10240” value was found to be 31.25 µg/mL (≈ 14.8 µM).

For the molecule `CC[C@H](C)[C@H](NC(=O)[C@H](CCCNC(=N)N)NC(=O)[C@@H]1CCCN1C(=O)[C@H](Cc1c[nH]cn1)NC(=O)[C@@H]1CCCN1C(=O)[C@@H]1CCCN1C(=O)[C@H](CCCNC(=N)N)NC(=O)[C@@H]1C[C@@H](O)CN1C(=O)[C@H](CCCNC(=N)N)NC(=O)[C@@H]1CCCN1C(=O)[C@@H](NC(=O)[C@H](Cc1ccc(O)cc1)NC(=O)[C@@H](NC(=O)[C@@H]1CCCN1C(=O)[C@H](CCCNC(=N)N)NC(=O)[C@H](CC(N)=O)NC(=O)[C@H](CC(N)=O)NC(=O)CN)C(C)C)[C@@H](C)CC)C(N)=O` [compound 90] (H-GNNRPVYIPR[Hyp]RPPHPRI-NH2), the “MIC M. luteus ATCC 10240” value in the test with M. luteus ATCC 10240 was found to be 7.81 µg/mL (≈ 3.63 µM).

For the molecule `CC[C@H](C)[C@H](NC(=O)[C@H](Cc1ccc(O)cc1)NC(=O)[C@@H](NC(=O)[C@@H]1CCCN1C(=O)[C@H](CCCNC(=N)N)NC(=O)[C@H](CC(N)=O)NC(=O)[C@H](CC(N)=O)NC(=O)[C@H](CCCN)N=C(N(C)C)N(C)C)C(C)C)C(=O)N1CCC[C@H]1C(=O)N[C@@H](CCCNC(=N)N)C(=O)N1CCC[C@H]1C(=O)N[C@@H](CCCNC(=N)N)C(=O)N1CCC[C@H]1C(=O)N1CCC[C@H]1C(=O)N[C@@H](Cc1c[nH]cn1)C(=O)N1CCC[C@H]1C(=O)N[C@@H](CCCNC(N)=O)C(=O)N[C@@H](CC(C)C)C(N)=O` [compound 151] ({Orn(α-tetramethylguanidino)}-NNRPVYIPRPRPPHP[Cit]L-NH2; N-terminus and C-terminus assumed), the “MIC M. luteus ATCC 10240” value against M. luteus ATCC 10240 was 64 µg/mL (≈ 27.9 µM).

Source of the values: US20150315241A1, “Antibiotic Peptides” (priority 2007, published 2015).
